Measured values: patent US8530520B2, “Cycloalkyl-dione derivatives and methods of their use” (The Trustees Of The University Of Pennsylvania, priority 2011, dated 2013)

molecular target: T1, human TP receptor (Homo sapiens, UniProt P21731); assay: biochemical
T1 sequence (P21731 1-343): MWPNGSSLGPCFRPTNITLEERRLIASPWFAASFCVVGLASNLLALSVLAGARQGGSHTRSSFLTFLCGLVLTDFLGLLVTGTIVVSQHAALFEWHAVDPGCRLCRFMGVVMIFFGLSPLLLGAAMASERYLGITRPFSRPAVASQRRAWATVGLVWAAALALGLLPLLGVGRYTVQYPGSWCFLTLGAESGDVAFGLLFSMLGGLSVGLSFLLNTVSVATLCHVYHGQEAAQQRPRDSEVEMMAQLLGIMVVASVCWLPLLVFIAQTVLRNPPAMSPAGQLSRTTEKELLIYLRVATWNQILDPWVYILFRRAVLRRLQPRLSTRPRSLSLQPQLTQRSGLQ

| IC50 | Compound |
| --- | --- |
| 328 nM | CC1=C(O)C(Cc2cccc(CCNS(=O)(=O)c3ccc(Cl)cc3)c2)CC1=O (stereo not drawn) [Compound 42, 4-Chloro-N-(3-((2-hydroxy-3-methyl-4-oxocyclopent-2-en-1-yl)methyl)phenethyl)-benzenesulfonamide] |
| 11400 nM | O=C1CCC(O)=C1Cc1cccc(CCNS(=O)(=O)c2ccc(Cl)cc2)c1 [Compound 50, 4-Chloro-N-(3-((2-hydroxy-5-oxocyclopent-1-en-1-yl)methyl)phenethyl)benzenesulfonamide] |

Second part, the compound before the results:

| Compound | IC50 |
| --- | --- |
| O=C1C=C(O)C(Cc2cccc(CCNS(=O)(=O)c3ccc(Cl)cc3)c2)C1 (stereo not drawn) [Compound 41, 4-Chloro-N-(3-((2-hydroxy-4-oxocyclopent-2-en-1-yl)methyl)phenethyl)benzenesulfonamide] | 203 nM |
| O=S(=O)(NCCc1cccc(CCCO)c1)c1ccc(Cl)cc1 [Compound 59] | > 10000 nM |
| O=S(=O)(NCCc1cccc(CCc2nnn[nH]2)c1)c1ccc(Cl)cc1 [Compound 60] | 331 nM |
| O=c1c(O)c(NCc2cccc(CCNS(=O)(=O)c3ccc(Cl)cc3)c2)c1=O [Compound 61] | 359 nM |
